Holding throughout (format): in vivo, human
Test [1] has as its system clinically healthy volunteers. In words: Oxygen carrying capacity of plasma lipoproteins (OCCL) by catalymetry assay, one-month intake, Example 2.4. Particulars: for Effect of regular intake on OCCL (in words): 4 weeks daily intake. The procedure:
6 healthy volunteers (HV, 42-61 years old) and 4 CAD patients, eligible for the treadmill test (age 45-59 years old) were recruited for this study. Apart from assessing changes their electrocardiogram (ECG), pulse and blood pressure, samples and level of oxygen carrying capacity of plasma lipoproteins, OCCL, from venous blood was analyzed prior to the test and within 3-4 minutes afterward. The measurement was conducted using a catalymetry assay. In short, 10 μl of citrate plasma was added to 0.98 ml cuvette of 0.05 M phosphate buffer with 0.1 mM sodium ethylenediamine tetraacetic acid (EDTA-Na), containing 10^−6 M phenazine methosulphate and 10^−4 M nitro blue tetrazolium chloride (NBT). The reaction was initiated by adding 10 μl of 10^−4 M NADH.
The difference in absorption at λ=560 nm between starting point and after 60 seconds was measured by spectroscopy. This difference was used to measure oxygen-depended reduction of NBT. The results of this reaction were compared with the control reaction where instead of plasma 10 μl of the reaction buffer was added. The difference in the reduction of NBT with the analyzed sample and the control was used to calculate the amount of O2 in added plasma lipoproteins.
In this section the effects of regular intake of validated bioactive nutraceuticals on blood OCCL and tissue oxygen saturation (StO2) was evaluated.
(§1) For this study […] clinically healthy volunteers were recruited (age 35-57 years old), 30 male and 34 female). The subjects had not taken any medication or dietary supplements prior to the experiment. The volunteers were randomized and divided into 7 groups of 8 persons each. The participants were given a one-month supply of a particular nutraceutical or pharmaceutical. […] The daily dose for each product was taken in 1 capsule with the main meal of the day. The blood and StO2 were analyzed prior the trial and after (4 weeks). OCCL was analyzed as described above.

Test [2] relates to clinically healthy volunteers. In words: Tissue oxygen saturation (StO2) by near-infrared spectroscopy with stagnant ischemia, Example 2.4. The following applies: for StO2: area under hyperemic curve post occlusion; for Effect of regular intake on StO2 / peripheral tissue oxygenation (in words): 4 weeks daily intake. The procedure: as §1
Thenar eminence and forearm muscles of the patients were used as a tissue target for the assessment of StO2, or combined level of oxygenated hemoglobin and myoglobin. StO2 was assessed by continuous wavelength near-infrared spectroscopy, NIRS, with wide-gap second-derivative (In Spectra, Hutchinson Technology, MN, USA), as known in the art. The measurements were taken at different time points. The recording was initiated after 15 min of rest in a supine position, before occlusion of the brachial artery. It was then continued during stagnant ischemia induced by rapidly inflating a cuff to 50 mm Hg above systolic BP. The ischemia lasted for 3 min, and the recording period lasted for an additional 5 min, until StO2 was stabilized
The area under the hyperemic curve, AUC, of the recorded signal for the settling time in the post occlusion period was then calculated in AUC mm, or % O2/min. All body and vascular parameters were recorded in the morning between 8 and 10 a.m.

The test system of test [3] is clinically healthy volunteers. Description: Blood LDL concentration, one-month intake, Example 2.4.
From the text: Since oxygen solubility is higher in lipids than in aqueous media, it was interesting to examine a possible link between changes in OCCL and lipoprotein concentration in blood.
as §1

[4] abbreviates: 4 w, daily dose in 1 capsule with main meal.
[5] abbreviates: 0 w (prior the trial), 8 per group.

`C=C1CC[C@H](O)C/C1=C/C=C1\CCC[C@]2(C)[C@@H]([C@H](C)CCCC(C)C)CC[C@@H]12` [Vitamin D3]: the OCCL in test [1] (0 w (prior the trial)) is recorded as 412 ± 48 ΔE at λ = 560 nm × 10^3; in test [1] (setting [4]), 443 ± 51 ΔE at λ = 560 nm × 10^3. Further, the “Effect of regular intake on OCCL (in words)” value (“Effect … on OCCL (in words)” below) in test [1] is “did not affect”. The values for the StO2 in test [2] (0 w (prior the trial)) and in test [2] (setting [4]) were 66.8 ± 6.0 AUC mm and 71.2 ± 6.8 AUC mm, respectively. Moreover, the “Effect of regular intake on StO2 / peripheral tissue oxygenation (in words)” value in test [2] is recorded as “did not affect”. For the same compound, the LDL in test [3] (setting [5]) was 156 ± 8.4 mg/dL; in test [3] (setting [4]), 144 ± 5.9 mg/dL.
For the compound `CC(C)=CCC/C(C)=C/C=C/C(C)=C/C=C/C(C)=C/C=C/C=C(C)/C=C/C=C(C)/C=C/C=C(\C)CCC=C(C)C` [Lycopene], the OCCL in test [1] (0 w (prior the trial)) was 648 ± 41 ΔE at λ = 560 nm × 10^3; in test [1] (setting [4]), 786 ± 39 ΔE at λ = 560 nm × 10^3. The StO2 in test [2] (0 w (prior the trial)) amounted to 75 ± 0.73 AUC mm; in test [2] (setting [4]), 85 ± 0.61 AUC mm. In addition, the LDL in test [3] (setting [5]) came out at 156 ± 6.1 mg/dL; in test [3] (setting [4]), 135 ± 7.0 mg/dL.
With `COC1=C(OC)C(=O)C(C/C=C(\C)CC/C=C(\C)CC/C=C(\C)CC/C=C(\C)CC/C=C(\C)CC/C=C(\C)CC/C=C(\C)CC/C=C(\C)CC/C=C(\C)CCC=C(C)C)=C(C)C1=O` [Coenzyme Q10], the OCCL in test [1] (0 w (prior the trial)) is listed as 505 ± 66 ΔE at λ = 560 nm × 10^3; in test [1] (setting [4]) it was 593 ± 64 ΔE at λ = 560 nm × 10^3. Also, in test [1], the “Effect … on OCCL (in words)” value is “increase in OCCL”. Moreover, the StO2 in test [2] (0 w (prior the trial)) stood at 75.0 ± 7.4 AUC mm; in test [2] (setting [4]) it was 84.0 ± 8.5 AUC mm. The “Effect of regular intake on StO2 / peripheral tissue oxygenation (in words)” value in test [2] is on record as “significant improvement of peripheral tissue oxygenation”. The LDL in test [3] (setting [5]) turned out to be 143 ± 5.7 mg/dL; in test [3] (setting [4]), 140 ± 4.2 mg/dL.
As for `CCC(C)(C)C(=O)O[C@H]1C[C@@H](C)C=C2C=C[C@H](C)[C@H](CC[C@@H]3C[C@@H](O)CC(=O)O3)[C@H]21` [Simvastatin, reference compound], the OCCL in test [1] (0 w (prior the trial)) is 451 ± 51 ΔE at λ = 560 nm × 10^3; in test [1] (setting [4]), 504 ± 53 ΔE at λ = 560 nm × 10^3. In addition, the values for the StO2 in test [2] (0 w (prior the trial)) and in test [2] (setting [4]) were 70 ± 0.72 AUC mm and 73 ± 0.81 AUC mm, respectively.
With `CC1=C(/C=C/C(C)=C/C=C/C(C)=C/C=C/C=C(C)/C=C/C=C(C)/C=C/C2=C(C)C(=O)[C@@H](O)CC2(C)C)C(C)(C)C[C@H](O)C1=O` [Astaxanthin], the OCCL in test [1] (0 w (prior the trial)) was 539 ± 52 ΔE at λ = 560 nm × 10^3; in test [1] (setting [4]), 770 ± 57 ΔE at λ = 560 nm × 10^3. The StO2 in test [2] (0 w (prior the trial)) is on record as 77 ± 0.74 AUC mm; in test [2] (setting [4]) it was 87 ± 0.84 AUC mm. Besides, the LDL in test [3] (setting [5]) stood at 153 ± 7.3 mg/dL; in test [3] (setting [4]) it was 151 ± 6.2 mg/dL.
On to `CC/C=C\C/C=C\C/C=C\C/C=C\C/C=C\C/C=C\CCC(=O)O` [DHA Omega 3], for which the OCCL in test [1] (0 w (prior the trial)) is on record as 626 ± 34 ΔE at λ = 560 nm × 10^3; in test [1] (setting [4]) it was 639 ± 42 ΔE at λ = 560 nm × 10^3. Besides, the “Effect … on OCCL (in words)” value in test [1] was “did not affect”. The StO2 was determined as 74 ± 0.71 AUC mm in test [2] (0 w (prior the trial)) and 76 ± 0.92 AUC mm in test [2] (setting [4]). Further, the “Effect of regular intake on StO2 / peripheral tissue oxygenation (in words)” value in test [2] is listed as “did not affect”. Besides, the figures for the LDL in test [3] (setting [5]) and in test [3] (setting [4]) were 155 ± 9.2 mg/dL and 154 ± 7.5 mg/dL, respectively.
